Results from the NIST ThermoML archive (doi:10.1016/j.jct.2018.01.019).

Experiment: molar heat capacity at constant pressure
Settings: 101.33 kPa, Crystal 2, Small sample (50 mg) DSC

O=[Si]=O [silicon dioxide]
Settings	molar heat capacity at constant pressure [J/K/mol]
285 K	43.21
290 K	43.7
295 K	44.22
300 K	44.74
305 K	45.21
310 K	45.69
315 K	46.16
320 K	46.62
325 K	47.09
330 K	47.56
335 K	48.02
340 K	48.49
345 K	48.94
350 K	49.39
355 K	49.78
360 K	50.22
365 K	50.62
370 K	51.02
375 K	51.38
380 K	51.76
385 K	52.15
390 K	52.52
395 K	52.89
400 K	53.25
405 K	53.61
410 K	53.99
415 K	54.34
420 K	54.7
425 K	55.03
430 K	55.38
435 K	55.74
440 K	56.07
445 K	56.42
450 K	56.75
455 K	57.1
460 K	57.4
465 K	57.69
470 K	58.01
475 K	58.29
480 K	58.59
485 K	58.87
490 K	59.12
495 K	59.37
500 K	59.63
505 K	59.91
510 K	60.16
515 K	60.41
520 K	60.66
525 K	60.91
530 K	61.15
535 K	61.41
540 K	61.66
545 K	61.92
550 K	62.19
555 K	62.45
560 K	62.73
565 K	63.01
570 K	63.26
575 K	63.49
580 K	63.74
585 K	64.01
590 K	64.24
595 K	64.46
600 K	64.69
605 K	64.89
610 K	65.09
615 K	65.3
620 K	65.5
625 K	65.73
630 K	65.97
635 K	66.17
640 K	66.38
645 K	66.62
650 K	66.84
655 K	67.01
660 K	67.18
665 K	67.38
670 K	67.57
675 K	67.75
680 K	67.94
685 K	68.16
690 K	68.35
695 K	68.56
700 K	68.75
705 K	68.95
710 K	69.14
715 K	69.35
720 K	69.58
725 K	69.69
